Test results: ChEMBL document CHEMBL1152048, “N-(1-phenyl-2-benzimidazolyl)-N-phenylurea derivatives as potent in hibitors of acylcoa:cholesterol acyltransferase (ACAT)” (Bioorg Med Chem Lett, 1995)

What was measured:
[1] = biological target: T1, Acyl-CoA:cholesterol acyltransferase (Oryctolagus cuniculus, UniProt Q95214); experiment: In vitro inhibitory activity towards acyl CoA cholesterol acyltransferase (ACAT) of cholesterol-fed rabbits by the displacement of [14C]oleolyl-CoA
T1 sequence (Q95214 whole entry): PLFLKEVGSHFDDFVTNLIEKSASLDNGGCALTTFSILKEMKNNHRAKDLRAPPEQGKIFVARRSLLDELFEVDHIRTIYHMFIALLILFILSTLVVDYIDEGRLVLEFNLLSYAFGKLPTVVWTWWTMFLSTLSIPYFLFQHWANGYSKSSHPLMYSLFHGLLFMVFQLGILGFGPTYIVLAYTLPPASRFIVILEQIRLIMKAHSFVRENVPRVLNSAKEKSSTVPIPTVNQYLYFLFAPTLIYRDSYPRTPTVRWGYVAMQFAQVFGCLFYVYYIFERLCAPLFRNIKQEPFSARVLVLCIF

[2] = biological target: T2, Acyl-CoA:cholesterol acyltransferase (Oryctolagus cuniculus) (UniProt Q95214); experiment: In vitro inhibitory activity towards acyl CoA cholesterol acyltransferase (ACAT) of cholesterol-fed rabbits by the displacement of [14C]oleolyl-CoA at 1 uM
T2 sequence (whole entry): T1 sequence (Q95214 whole entry)

Cricetinae gen. sp. = experiment: Compound was tested in vivo at a dose of 10 (mg/kg) for percent inhibition in increased serum total cholesterol in golden hamsters fed with a diet containing 2% cholesterol; type: functional, Mesocricetus auratus

SMILES: CC(C)c1cccc(C(C)C)c1NC(=O)Nc1nc2ccccc2n1-c1ccc(Cl)cc1
- IC50 [1]: 280 nM

SMILES: CC(C)c1cccc(C(C)C)c1NC(=O)Nc1nc2ccccc2n1-c1ccccc1C(F)(F)F
- IC50 [1]: 72 nM

SMILES: O=C(Nc1ccc(F)cc1F)Nc1nc2ccccc2n1-c1ccccc1Cl
- inhibition [2]: 27%

SMILES: CC(C)c1cccc(C(C)C)c1NC(=O)Nc1nc2ccccc2n1-c1cc(C(=O)O)ccc1Cl
- inhibition [2]: 2%

SMILES: CC(C)c1cccc(C(C)C)c1NC(=O)Nc1nc2ccccc2n1-c1ccccc1N(C)C
- IC50 [1]: 41 nM
- Reduction (Cricetinae gen. sp.): 102%

SMILES: COc1ccccc1-n1c(NC(=O)Nc2c(C(C)C)cccc2C(C)C)nc2ccccc21
- IC50 [1]: 20 nM

SMILES: CC(C)c1cccc(C(C)C)c1NC(=O)Nc1nc2ccccc2n1-c1ccccc1Br
- IC50 [1]: 22 nM
- Reduction (Cricetinae gen. sp.): 37%

SMILES: Cc1cccc(C)c1NC(=O)Nc1nc2ccccc2n1-c1ccccc1Cl
- IC50 [1]: 420 nM

SMILES: CC(C)c1cccc(C(C)C)c1NC(=O)Nc1nc2ccccc2n1-c1ccccc1Cl
- IC50 [1]: 18 nM
- Reduction (Cricetinae gen. sp.): 80%

SMILES: CC(C)c1cccc(C(C)C)c1NC(=O)Nc1nc2ccccc2n1-c1ncccc1Cl
- IC50 [1]: 100 nM

SMILES: CC(C)c1cccc(C(C)C)c1NC(=O)Nc1nc2cccnc2n1-c1ccccc1Cl
- IC50 [1]: 33 nM
- Reduction (Cricetinae gen. sp.): 76%

SMILES: CC(C)c1cccc(C(C)C)c1NC(=O)Nc1nc2ccccc2n1-c1ccccc1O
- IC50 [1]: 200 nM

SMILES: CC(C)c1cccc(C(C)C)c1NC(=O)Nc1nc2ccccc2n1-c1cccc(Cl)c1
- IC50 [1]: 20 nM

SMILES: Cc1ncccc1-n1c(NC(=O)Nc2c(C(C)C)cccc2C(C)C)nc2ccccc21
- IC50 [1]: 100 nM

SMILES: CC(C)c1cccc(C(C)C)c1NC(=O)Nc1nc2ccccc2n1-c1ccccc1
- IC50 [1]: 66 nM

SMILES: Cc1cc(C)c(NC(=O)Nc2nc3ccccc3n2-c2c(Cl)cccc2Cl)c(C)c1
- inhibition [2]: 24%

SMILES: CC(C)c1cccc(C(C)C)c1NC(=O)Nc1nc2ccccc2n1-c1c(Cl)cccc1Cl
- IC50 [1]: 11 nM
- Reduction (Cricetinae gen. sp.): 74%

SMILES: Cc1ccccc1-n1c(NC(=O)Nc2c(C(C)C)cccc2C(C)C)nc2ccccc21
- IC50 [1]: 19 nM
